Experimental data taken from article PMC10674894 (Viruses, 2023).

How the values were obtained:
Vero cells = assay: Cytotoxicity MTT assay in Vero cells (MNTD, CC50); type: cell-based, African green monkey
CHIKV DRDE-07 = assay: In vitro screening against CHIKV (CPE inhibition and MTT cell viability); type: cell-based, chikungunya virus; details: for % Cell viability / CPE: Table S1, CHIKV-infected Vero cells; for % Cell viability: MTT assay; for CPE: arbitrary score of cytopathic effect at >48 hpi

Structure (SMILES) | MNTD (Vero cells; Table S1, Vero cells) | % Cell viability (CHIKV DRDE-07; 72 hpi) | CPE (CHIKV DRDE-07) | MNTD (Vero cells; maximum nontoxic dose in Vero cells, MTT) | Cell Viability (CHIKV DRDE-07; CHIKV-infected Vero cells treated at MNTD, 72 hpi, MTT, cell control + DMSO = 100%)
CCOc1cc(-c2cc(-c3ccc(O)cc3)nn2C(=O)c2cccnc2)ccc1O [DCR59, 2-ethoxy-4-[3-(4-hydroxyphenyl)-1-(pyridine-3-carbonyl)-1H-pyrazol-5-yl]phenol] | 15.62 µM | 49.1% | +++ (60-50% (+++)) | – | –
O=C(N/N=C/c1cccc([N+](=O)[O-])c1)c1ccncc1 [DCR34, (E)-N'-(3-nitrobenzylidene)isonicotinohydrazide] | 62.5 µM | 6.42% | ++++ (>60% (++++)) | – | –
CCc1ccc(C2c3c(ccc4ccccc34)Oc3ccc4ccccc4c32)cc1 [DCR118, 2‐(4‐ethylphenyl)‐13‐oxapentacyclo[12.8.0.0³,¹².0⁴,⁹.0¹⁷,²²]docosa‐1(14),3,5,7,9,11,15,17(22),18,20‐decaene] | 31.25 µM | 14.23% | ++++ (>60% (++++)) | – | –
CCOc1ccc(C2NC(=O)NC(C)=C2C(=O)OCC[N+](C)(C)C)cc1 (stereo not drawn) [DCR75, {2-[4-(4-ethoxyphenyl)-6-methyl-2-oxo-1,2,3,4-tetrahydropyrimidine-5-carbonyloxy]ethyl}trimethylazanium] | 31.25 µM | 10.21% | ++++ (>60% (++++)) | – | –
O=C(NNC(=O)c1cccnc1)c1ccccc1 [DCR4, N'-benzoylnicotinohydrazide] | 31.25 µM | 15% | ++++ (>60% (++++)) | – | –
COc1cc(Br)cc(C2C3=C(CC(C)(C)CC3=O)OC3=C2C(=O)CC(C)(C)C3)c1 [DCR131, 9‐(3‐bromo‐5‐methoxyphenyl)‐3,3,6,6‐tetramethyl‐2,3,4,5,6,7,8,9‐octahydro‐1H‐xanthene‐1,8‐dione] | 125 µM | 8.01% | ++++ (>60% (++++)) | – | –
CC1(C)CC(=O)C2=C(C1)OC1=C(C(=O)CC(C)(C)C1)C2c1ccc(Cl)cc1 [DCR122, 9‐(4‐chlorophenyl)‐3,3,6,6‐tetramethyl‐2,3,4,5,6,7,8,9‐octahydro‐1H‐xanthene‐1,8‐dione] | 31.25 µM | 11.09% | ++++ (>60% (++++)) | – | –
CC1=C(C(=O)OCC[N+](C)(C)C)C(c2ccc([N+](=O)[O-])cc2)NC(=O)N1 (stereo not drawn) [DCR104, N,N,N-trimethyl-2-({[6-methyl-4-(4-nitrophenyl)-2-oxo-1,2,3,4-tetrahydropyrimidin-5-yl]carbonyl}oxy)ethanaminium] | 125 µM | 9.09% | ++++ (>60% (++++)) | – | –
O=C(N/N=C/c1ccc(Cl)cc1Cl)c1ccncc1 [DCR41, (E)-N'-(2,4-dichlorobenzylidene)isonicotinohydrazide] | 31.25 µM | 35.79% | ++++ (>60% (++++)) | – | –
Nc1nc(N)c2ccccc2n1 [DCR 134, Quinazoline-2,4-diamine] | 150 µM | – | + (<30%) | 150 µM | 75.9%
COc1ccc(C2NC(=O)NC(C)=C2C(=O)OCc2ccccc2)cc1 (stereo not drawn) [DCR102, benzyl 4-(4-methoxyphenyl)-6-methyl-2-oxo-1,2,3,4-tetrahydropyrimidine-5-carboxylate] | 250 µM | 8.11% | ++++ (>60% (++++)) | – | –
CC(=O)Cc1noc(-c2cc(Cl)ccc2Cl)n1 [DCR83, 1-[5-(2,5-dichlorophenyl)-1,2,4-oxadiazol-3-yl]propan-2-one] | 230.55 µM | 10.49% | ++++ (>60% (++++)) | – | –
CC1(C)CC(=O)C2=C(C1)OC1=C(C(=O)CC(C)(C)C1)C2c1cccc([N+](=O)[O-])c1 [DCR129, 3,3,6,6‐tetramethyl‐9‐(3‐nitrophenyl)‐2,3,4,5,6,7,8,9‐octahydro‐1H‐xanthene‐1,8‐dione] | 31.25 µM | 16.85% | ++++ (>60% (++++)) | – | –
CC(=O)NNC(=O)c1cccnc1 [DCR7, N'-acetylnicotinohydrazide] | 62.5 µM | 20.31% | ++++ (>60% (++++)) | – | –
CC(=O)Cc1noc(C2CCCCC2)n1 [DCR80, 1-(5-cyclohexyl-1,2,4-oxadiazol-3-yl)propan-2-one] | 125 µM | 29.64% | ++++ (>60% (++++)) | – | –
COc1ccc(C2C3=C(CC(C)(C)CC3=O)OC3=C2C(=O)CC(C)(C)C3)cc1 [DCR128, 9‐(4‐methoxyphenyl)‐3,3,6,6‐tetramethyl‐2,3,4,5,6,7,8,9‐octahydro‐1H‐xanthene‐1,8‐dione] | 125 µM | 11.01% | ++++ (>60% (++++)) | – | –
C#CCOC(=O)C1=C(C)NC(=O)NC1c1ccc(F)cc1 (stereo not drawn) [DCR90, prop-2-yn-1-yl 4-(4-fluorophenyl)-6-methyl-2-oxo-1,2,3,4-tetrahydropyrimidine-5-carboxylate] | 433.62 µM | 12.59% | ++++ (>60% (++++)) | – | –
C#CCOC(=O)C1=C(C)NC(=O)NC1c1ccc(C(F)(F)F)cc1 (stereo not drawn) [DCR91, prop-2-yn-1-yl 6-methyl-2-oxo-4-[4-(trifluoromethyl)phenyl]-1,2,3,4-tetrahydropyrimidine-5-carboxylate] | 369.52 µM | 13.12% | ++++ (>60% (++++)) | – | –
CC1=C(C(=O)OCCN(C)C)C(c2ccc(Cl)cc2)NC(=O)N1 (stereo not drawn) [DCR108, 2-(dimethylamino)ethyl 4-(4-chlorophenyl)-6-methyl-2-oxo-1,2,3,4-tetrahydropyrimidine-5-carboxylate] | 62.5 µM | 13.99% | ++++ (>60% (++++)) | – | –
CC1(C)CC(=O)C2=C(C1)OC1=C(C(=O)CC(C)(C)C1)C2c1ccccc1Cl [DCR124, 9‐(2‐chlorophenyl)‐3,3,6,6‐tetramethyl‐2,3,4,5,6,7,8,9‐octahydro‐1H‐xanthene‐1,8‐dione] | 125 µM | 11.05% | ++++ (>60% (++++)) | – | –
COc1ccc(/C(=N\NC(=O)c2cccnc2)c2ccccc2)cc1 [DCR48, (Z)-N'-((4-methoxyphenyl)(phenyl)methylene)nicotinohydrazide] | 31.25 µM | 20.87% | ++++ (>60% (++++)) | – | –
C#CCOC(=O)C1=C(C)NC(=O)NC1c1ccc(CC)cc1 (stereo not drawn) [DCR87, prop-2-yn-1-yl 4-(4-ethylphenyl)-6-methyl-2-oxo-1,2,3,4-tetrahydropyrimidine-5-carboxylate] | 104.58 µM | 11.61% | ++++ (>60% (++++)) | – | –
CC1=C(C(=O)OCC[N+](C)(C)C)C(c2ccc(C)cc2)NC(=O)N1 (stereo not drawn) [DCR105, N,N,N-trimethyl-2-({[6-methyl-4-(4-methylphenyl)-2-oxo-1,2,3,4-tetrahydropyrimidin-5-yl]carbonyl}oxy)ethanaminium] | 125 µM | 2.45% | ++++ (>60% (++++)) | – | –
C#CCOC(=O)C1=C(C)NC(=O)NC1c1ccc([N+](=O)[O-])cc1 (stereo not drawn) [DCR93, prop-2-yn-1-yl 6-methyl-4-(4-nitrophenyl)-2-oxo-1,2,3,4-tetrahydropyrimidine-5-carboxylate] | – | 12.17% | ++++ (>60% (++++)) | – | –
